Here are results for 3 compounds from ChEMBL document CHEMBL1165864, “Scavenging activity of aminoantipyrines against hydroxyl radical” (Eur J Med Chem, 2010).

Activity calls are given as the source filed them. No cut-off for these calls is given here.

A short description of this test: Antioxidant activity assessed as hydroxyl radical scavenging activity at 10 mM at pH 7 by fenton reaction. The format is functional.

`Cc1c(N(C)C)c(=O)n(-c2ccccc2)n1C`: the result was Active. Regarding `Cc1c(N)c(=O)n(-c2ccccc2)n1C`, the outcome was Active. As to `CNc1c(C)n(C)n(-c2ccccc2)c1=O`, the result was Active.
